Test results reported in US10167262B2, “Herbicidal substituted 3-arylpyrazoles” (FMC CORPORATION, priority 2014, dated 2019).

Key:
Format in all cases: in vivo
[1] = test system: barnyardgrass (Echinochloa crus-galli); assay: Test C pre-/postemergence greenhouse test, plant response rating 0-100; details: Postemergence; for Plant response rating, Barnyardgrass: scale 0 to 100
In short: (§1)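 Formulated in solvent with surfactant, test chemicals were sprayed on seeded loam/sand pots and, concurrently, on young plants 2–18 cm tall. Evaluation: visual, versus controls, day 13–15.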

[2] = test system: oilseed rape (Brassica napus); assay: as above; details: Postemergence; for Plant response rating, Oilseed Rape: scale 0 to 100
In short: as §1

[3] = test system: waterhemp (common waterhemp, Amaranthus rudis); assay: as above
In short: as §1

[4] = test system: barnyardgrass (Echinochloa crus-galli); assay: Test E pre-/postemergence greenhouse test, plant response rating 0-100; details: scale 0 to 100; for Plant response rating, Barnyardgrass: Postemergence; for Barnyardgrass plant response rating: Preemergence
In short: (§2)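 Greenhouse response on a 0 (none) to 100 (complete control) scale, assessed 14 to 21 days post-treatment. Soil-applied preemergence on silt loam; foliar postemergence on plants 2–18 cm high.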

[5] = test system: sandbur (southern sandbur, Cenchrus echinatus); assay: as above; details: scale 0 to 100; for Plant response rating, Sandbur: Postemergence; for Sandbur plant response rating: Preemergence
In short: as §2

[6] = test system: soybean (Glycine max); assay: as above; details: scale 0 to 100; for Plant response rating, Soybean: Postemergence; for Soybean plant response rating: Preemergence
In short: as §2

[7] = Postemergence, 250 g ai/ha, scale 0 to 100

O=C(c1ccccc1)c1cn(S(=O)(=O)CCl)nc1-c1cc(Cl)cc(Cl)c1 [Compound 1]
Plant response rating (0 to 100), Barnyardgrass ([1]; 31 g ai/ha): 0 | Plant response rating (0 to 100), Barnyardgrass ([1]; 62 g ai/ha): 0 | Plant response rating, Barnyardgrass ([1]; 125 g ai/ha): 0 | Plant response rating, Barnyardgrass ([1]; 250 g ai/ha): 0 | Plant response rating (0 to 100), Oilseed Rape ([2]; 62 g ai/ha): 50 | Plant response rating (0 to 100), Oilseed Rape ([2]; 125 g ai/ha): 80 | Plant response rating, Oilseed Rape ([2]; 250 g ai/ha): 95 | Plant response rating (0 to 100), Waterhemp ([3]; Postemergence, 62 g ai/ha): 90 | Plant response rating (0 to 100), Waterhemp ([3]; Postemergence, 125 g ai/ha): 90 | Plant response rating, Waterhemp [3, 7]: 98 | Plant response rating, Barnyardgrass ([4]; 31 g ai/ha): 0 | Plant response rating, Barnyardgrass ([4]; 62 g ai/ha): 0 | Plant response rating, Barnyardgrass ([4]; 125 g ai/ha): 0 | Plant response rating, Barnyardgrass ([4]; 250 g ai/ha): 0 | Plant response rating, Barnyardgrass ([4]; 500 g ai/ha): 0 | Barnyardgrass plant response rating ([4]; 62 g ai/ha): 0 | Barnyardgrass plant response rating ([4]; 125 g ai/ha): 0 | Barnyardgrass plant response rating ([4]; 250 g ai/ha): 0 | Barnyardgrass plant response rating ([4]; 500 g ai/ha): 0 | Plant response rating, Sandbur ([5]; 31 g ai/ha): 0 | Plant response rating, Sandbur ([5]; 62 g ai/ha): 0 | Plant response rating, Sandbur ([5]; 125 g ai/ha): 0 | Plant response rating, Sandbur ([5]; 250 g ai/ha): 0 | Plant response rating, Sandbur ([5]; 500 g ai/ha): 0 | Sandbur plant response rating ([5]; 31 g ai/ha): 0 | Sandbur plant response rating ([5]; 62 g ai/ha): 0 | Sandbur plant response rating ([5]; 125 g ai/ha): 0 | Sandbur plant response rating ([5]; 250 g ai/ha): 20 | Sandbur plant response rating ([5]; 500 g ai/ha): 20 | Plant response rating, Soybean ([6]; 31 g ai/ha): 0 | Plant response rating, Soybean ([6]; 62 g ai/ha): 0 | Plant response rating, Soybean ([6]; 125 g ai/ha): 0 | Plant response rating, Soybean ([6]; 250 g ai/ha): 0 | Plant response rating, Soybean ([6]; 500 g ai/ha): 0 | Soybean plant response rating ([6]; 31 g ai/ha): 0 | Soybean plant response rating ([6]; 62 g ai/ha): 0 | Soybean plant response rating ([6]; 125 g ai/ha): 0 | Soybean plant response rating ([6]; 250 g ai/ha): 0 | Soybean plant response rating ([6]; 500 g ai/ha): 0

O=C(c1ccccc1)c1cn(S(=O)(=O)C(F)(F)F)nc1-c1cc(Cl)cc(Cl)c1 [Compound 2]
Plant response rating (0 to 100), Barnyardgrass ([1]; 62 g ai/ha): 0 | Plant response rating, Barnyardgrass ([1]; 125 g ai/ha): 0 | Plant response rating, Barnyardgrass ([1]; 250 g ai/ha): 0 | Plant response rating, Barnyardgrass ([1]; 500 g ai/ha): 0 | Plant response rating (0 to 100), Oilseed Rape ([2]; 62 g ai/ha): 70 | Plant response rating (0 to 100), Oilseed Rape ([2]; 125 g ai/ha): 70 | Plant response rating, Oilseed Rape ([2]; 250 g ai/ha): 90 | Plant response rating, Oilseed Rape ([2]; 500 g ai/ha): 90 | Plant response rating (0 to 100), Waterhemp ([3]; Postemergence, 62 g ai/ha): 85 | Plant response rating (0 to 100), Waterhemp ([3]; Postemergence, 125 g ai/ha): 85 | Plant response rating, Waterhemp [3, 7]: 100 | Plant response rating, Waterhemp ([3]; Postemergence, 500 g ai/ha, scale 0 to 100): 100 | Plant response rating, Waterhemp ([3]; Preemergence, 0 to 100 scale (0 no effect, 100 complete control), rate 500 g ai/ha): 100 | Plant response rating, Barnyardgrass ([4]; 31 g ai/ha): 0 | Plant response rating, Barnyardgrass ([4]; 62 g ai/ha): 0 | Plant response rating, Barnyardgrass ([4]; 125 g ai/ha): 0 | Plant response rating, Barnyardgrass ([4]; 250 g ai/ha): 0 | Plant response rating, Barnyardgrass ([4]; 500 g ai/ha): 0 | Barnyardgrass plant response rating ([4]; 31 g ai/ha): 0 | Barnyardgrass plant response rating ([4]; 62 g ai/ha): 0 | Barnyardgrass plant response rating ([4]; 125 g ai/ha): 0 | Barnyardgrass plant response rating ([4]; 250 g ai/ha): 0 | Barnyardgrass plant response rating ([4]; 500 g ai/ha): 0 | Plant response rating, Sandbur ([5]; 31 g ai/ha): 0 | Plant response rating, Sandbur ([5]; 62 g ai/ha): 0 | Plant response rating, Sandbur ([5]; 125 g ai/ha): 0 | Plant response rating, Sandbur ([5]; 250 g ai/ha): 0 | Plant response rating, Sandbur ([5]; 500 g ai/ha): 0 | Sandbur plant response rating ([5]; 31 g ai/ha): 0 | Sandbur plant response rating ([5]; 62 g ai/ha): 0 | Sandbur plant response rating ([5]; 125 g ai/ha): 0 | Sandbur plant response rating ([5]; 250 g ai/ha): 0 | Sandbur plant response rating ([5]; 500 g ai/ha): 0 | Plant response rating, Soybean ([6]; 31 g ai/ha): 0 | Plant response rating, Soybean ([6]; 62 g ai/ha): 0 | Plant response rating, Soybean ([6]; 125 g ai/ha): 0 | Plant response rating, Soybean ([6]; 250 g ai/ha): 0 | Plant response rating, Soybean ([6]; 500 g ai/ha): 0 | Soybean plant response rating ([6]; 125 g ai/ha): 0 | Soybean plant response rating ([6]; 250 g ai/ha): 0 | Soybean plant response rating ([6]; 500 g ai/ha): 0
